Legend:
[1] = target: T1, specific receptor of progesterone (Oryctolagus cuniculus, UniProt P06186); assay: Hormonal receptor method: displacement of tritiated product R from rabbit uterus cytosol (relative binding affinity vs progesterone); details: for RBA 2 hours / RBA 24 hours: relative affinity, tritiated product R; for RBA 2 hours: progesterone = 100, incubation at 0° C. for 2 hours; for RBA 24 hours: progesterone = 100, incubation at 0° C. for 24 hours
T1 construct: the uteri were removed and homogenized; from tissue; host or cells: rabbit uterus, cytosol (105,000 g supernatant), estradiol-treated impuberal rabbits
T1 sequence (P06186 1-930): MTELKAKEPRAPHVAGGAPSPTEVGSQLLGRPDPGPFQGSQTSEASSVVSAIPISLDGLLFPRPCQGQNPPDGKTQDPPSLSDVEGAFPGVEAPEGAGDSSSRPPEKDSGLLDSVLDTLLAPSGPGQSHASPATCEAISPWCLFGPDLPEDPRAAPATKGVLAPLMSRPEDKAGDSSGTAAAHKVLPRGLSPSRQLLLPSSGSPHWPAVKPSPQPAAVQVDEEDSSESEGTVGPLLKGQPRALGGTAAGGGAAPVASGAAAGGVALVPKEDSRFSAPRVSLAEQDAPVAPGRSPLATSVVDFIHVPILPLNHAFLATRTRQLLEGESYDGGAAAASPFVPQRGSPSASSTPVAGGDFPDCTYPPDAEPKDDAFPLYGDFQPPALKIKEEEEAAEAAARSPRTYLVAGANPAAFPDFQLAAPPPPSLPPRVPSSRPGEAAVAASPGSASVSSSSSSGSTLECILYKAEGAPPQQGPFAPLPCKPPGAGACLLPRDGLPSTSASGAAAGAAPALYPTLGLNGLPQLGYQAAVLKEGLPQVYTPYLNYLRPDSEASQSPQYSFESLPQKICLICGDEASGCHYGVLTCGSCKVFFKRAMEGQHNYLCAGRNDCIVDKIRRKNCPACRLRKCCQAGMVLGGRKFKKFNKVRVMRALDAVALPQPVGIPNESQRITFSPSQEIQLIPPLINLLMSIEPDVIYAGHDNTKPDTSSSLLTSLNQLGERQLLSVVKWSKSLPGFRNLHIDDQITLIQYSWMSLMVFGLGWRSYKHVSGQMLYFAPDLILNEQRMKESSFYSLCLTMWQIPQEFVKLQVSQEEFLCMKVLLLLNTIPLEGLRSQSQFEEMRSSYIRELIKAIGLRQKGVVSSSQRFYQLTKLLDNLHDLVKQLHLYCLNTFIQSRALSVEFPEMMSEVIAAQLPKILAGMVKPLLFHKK
Procedure: a) The progestomimetic activity of the products of Examples 1 and 2 was studied by the method of hormonal receptors described by RAYNAUD et al in "J. Ster. BIOCHEM" 1975, Vol. 6, 615 to 622 and in "Physiology and Genetics of Reproduction", 1975 part A p. 143 to 160. The technique was as follows: […] of estradiol were administered to impuberal rabbits per-cutaneously. Five days after this treatment, the animals were killed, the uteri were removed and homogenized in a 10 mM tromethamine, 0.25 M saccharose, HCl pH 7.4 buffer. The homogenate was centrifuged at 105,000 g for one hour and the supernatant liquid or cytosol was adjusted to have a dilution of 1/50 (weight/volume). Tubes with the same volume of cytosol were incubated at 0° C. for two hours with a fixed concentration of tritiated 17,21-dimethyl-19-nor- Δ^4,9 -pregandiene-3,20-dione, called hereafter tritiated product R, in the presence or not of an increasing concentration of radio-inert 17,21-dimethyl-19-nor-Δ^4,9 -pregnadiene-3,20-dione called hereafter cold product R, of progesterone or of product under test. After two hours and after 24 hours, the radioactivity of bound tritiated product R was determined by the technique of absorption with cabon-dextran (1.25%-0.625%).
Then the following was traced: the straight line parallel to the axis of the abscesses, of the coordinate [formula]
Bo being the maximum quantity of bound tritiated product R, measured in the incubate containing only tritiated product R, Bmin being the minimum quantity of bound tritiated product R (non-specific), measured in the incubate containing tritiated product R plus a large excess of cold product R (2500 10^-9 M), the curves representing the percentages of bound tritiated product [formula] as a function of the logarithm of the concentrations of added cold product.
The intersections of the straight line I50 and the curves allowed the values CP and CX to be determined. CP: concentration of cold progesterone which inhibited by 50% the fixing of the tritiated product R. CX: concentration of the product under test which inhibited by 50% the fixing of the tritiated product R.
The relative affinity of the product under test or RBA is given by the formula

impuberal rabbits = assay: CLAUBERG test (lacy proliferation of the endometrium); format: in vivo, rabbit
Procedure: b) The progestomimetic activity of the product of Example 2 was determined by the CLAUBERG test. According to this test, groups of three impuberal rabbits were sensitized before-hand by the administration of estradiol sub-cutaneously for five days at a daily dose of 5 micrograms. Two days later, they were treated daily for five days with the medicament under study sub-cutaneously.
The product of Example 2 was used in solution in sesame oil containing 5% benzyl alcohol.

Compound: C[C@]12CC[C@H]3[C@@H](CCC4=CC(=O)CC[C@@H]43)[C@@H]1CC[C@@]21CCCC1=O [Example 1, Spiro (cyclopentane-1,17'β-Δ4'-estrene)-2,3'-dione]
- affinity for the specific receptor of progesterone (conclusion in words) [1]: very strong affinity
- RBA 2 hours [1]: 312
- RBA 24 hours [1]: 1012

Compound: C[C@]12CCC3=C4CCC(=O)C=C4CC[C@H]3[C@@H]1CC[C@@]21CCCC1=O [Example 2, spiro (cyclopentane-1,17'β -Δ4,9-estradiene)-2,3'-dione]
- Mac Phail UNITS (impuberal rabbits; 0.3 μg/rabbit/day sub-cutaneously for five days, estradiol-sensitized impuberal rabbits, sesame oil with 5% benzyl alcohol): 0.5 Mac Phail units
- Mac Phail UNITS (impuberal rabbits; 1 μg/rabbit/day sub-cutaneously for five days, estradiol-sensitized impuberal rabbits, sesame oil with 5% benzyl alcohol): 1.8 Mac Phail units
- Mac Phail UNITS (impuberal rabbits; 3 μg/rabbit/day sub-cutaneously for five days, estradiol-sensitized impuberal rabbits, sesame oil with 5% benzyl alcohol): 2.8 Mac Phail units
- progestomimetic activity (conclusion in words) (impuberal rabbits; CLAUBERG test, sub-cutaneous, impuberal rabbits): very strong progestomimetic activity
- Mac Phail UNITS (impuberal rabbits; daily dose of 10 micrograms, sub-cutaneously, impuberal rabbits): 2.8 Mac Phail units
- affinity for the specific receptor of progesterone (conclusion in words) [1]: very strong affinity
- RBA 2 hours [1]: 344
- RBA 24 hours [1]: 912

Source: US5084450A, “Novel steroids” (Roussel Uclaf, priority 1990, dated 1992)
